Measured values as given in patent US10538567B2, “Compounds as peptidic trigonal GLP1/glucagon/GIP receptor agonists” (priority 2016, dated 2020).
Numbered stars: 1 amine (or outer) side, 2 acyl side, 3 side chain; on linkers, the order of the positions; unused ones are H or OH. Square brackets hold non-standard residues; d marks the D form. Side chains are listed from the residue outwards. Peptide text beside a SMILES is read from it. * marks the point of attachment. γGlu = O=C(O)[C@H](CCC(=O)[*:2])N[*:1]; Palmitoyl = CCCCCCCCCCCCCCCC(=O)*; AEEA = NCCOCCOCC(=O)O; Aib = CC(C)(N)C(=O)O

How the values were obtained:
Type in all cases: physicochemical
[1] = Chemical stability assessment, UPLC-UV purity loss in buffer system A; conditions: 1 mg/ml, 25 mM acetate buffer pH 4.5 with m-cresol
Method: Prior to the chemical stability measurement of a peptide batch, its purity was determined through UPLC/MS. For stability testing the target concentration was 1 mg pure compound/ml. Therefore solutions from solid samples were prepared in a buffer system with a concentration of 1 mg/mL compound based on the previously determined % purity:
Chemical stability buffer system A) 25 mM acetate buffer pH 4.5, 3 mg/mL L-Methionine, 2.7 mg/mL m-cresol, 18 mg/mL Glycerol 85% Chemical stability buffer system B) 25 mM phosphate buffer pH 6.0, 3 mg/mL L-Methionine, 2.7 mg/mL m-cresol, 18 mg/mL Glycerol 85%
Peptide solutions were filtered through […] pore size and filled into aliquots under aseptic conditions. At starting point, UPLC-UV was performed by injection of 2 μl of the undiluted sample.
For chemical stability testing, aliquots were stored for 28 days at 5 and 40° C. After this time course the samples were centrifuged for 15 min at 2500 RCF. Then 2 μl of the undiluted supernatant were analysed with UPLC-UV.
The chemical stability was rated through the relative loss of purity calculated by the equation: [(purity at starting point)−(purity after 28 days at X° C.)]/(purity at starting point)]*100%
The purity is calculated as
[(peak area peptide)/(total peak area)]*100%
Peptide samples were prepared in Chemical stability buffer system A and the stability was assessed as described in Methods.

[2] = Dynamic light scattering, hydrodynamic radius as surrogate for DLS interaction parameter kD; conditions: for Delta Rh [nm] = Rh5 − Rh1: DLS buffer system A pH 4.5; for Rh1 [nm] c = 1 mg/ml / Rh5 [nm] c = 5 mg/ml: hydrodynamic radius, DLS buffer system A pH 4.5, method C, 25° C.
Excerpt: A monochromatic and coherent light beam (laser) is used to illuminate the liquid sample. Dynamic Light Scattering (DLS) measures light scattered from particles (1 nm≤radius≤1 μm) that undergo Brownian motion. This motion is induced by collisions between the particles and solvent molecules that themselves are moving due to their thermal energy. The diffusional motion of the particles results in temporal fluctuations of the scattered light [Pecora, R. Dynamic Light Scattering: Applications of Photon Correlation Spectroscopy, Plenum Press, 1985].
The scattered light intensity fluctuations are recorded and transformed into an autocorrelation function. By fitting the autocorrelation curve to an exponential function, the diffusion coefficient D of the particles in solution can be derived. The diffusion coefficient is then used to calculate the hydrodynamic radius Rh (or apparent Stokes radius) through the Stokes-Einstein equation assuming spherical particles. This calculation is defined in ISO 13321 and ISO 22412 [International Standard ISO13321 Methods for Determination of Particle Size Distribution Part 8: Photon Correlation Spectroscopy, International Organisation for Standardisation (ISO) 1996; International Standard ISO22412 Particle Size Analysis—Dynamic Light Scattering, International Organisation for Standardisation (ISO) 2008].
For every peptide solution, the hydrodynamic radius Rh and the diffusion constant D (related via the Stokes-Einstein equation) were determined as an average over triplicates. Both parameters were determined at different peptide concentrations (e.g., Rh1 and D1: 1 mg/ml and Rh5 and D5: 5 mg/ml) in the same buffer system. The difference of these parameters between low and high peptide concentration is a surrogate for the DLS interaction parameter kD. Rh5<Rh1 or D5>D1 correspond to kD>0 and therefore to repulsive inter-particle interactions that result in improved physical (or colloidal) stability.
DLS buffer system A) 25 mM acetate buffer pH 4.5, 3 mg/mL L-Methionine, 2.7 mg/mL m-cresol, 18 mg/mL Glycerol 85%
DLS Method C: DLS measurements were performed on a DynaPro Plate Reader II (Wyatt Technology, Santa Barbara, Calif., US) and using one of the following black, low volume, and non-treated plates: polystyrene 384 assay plate with clear bottom (Corning, N.Y., US), polystyrene 96 assay plate with clear bottom (Corning, N.Y., US), cyclo olefin polymer (COP) 384 assay plate with clear bottom (Aurora, Mont., US), or polystyrene 384 assay plate with clear bottom (Greiner Bio-One, Germany). The data were processed with the Dynamics software provided by Wyatt Technology. Parameters of the particle size distribution were determined with non-negatively constrained least squares (NNLS) methods using DynaLS algorithms. Measurements were taken at 25° C. with an 830 nm laser light source at an angle of 158°.
The hydrodynamic radius Rh of peptide samples was determined at different peptide concentrations (1 mg/ml and 5 mg/ml) in DLS buffer system A using DLS method C as described in Methods as surrogate for the DLS interaction parameter kD.

[3] = Thioflavin T (ThT) assay for physical stability (fibrillation); conditions: 3 mg/ml, 100 mM acetate pH 4.5 with m-cresol, 37° C. shaking
Excerpt: Low physical stability of a peptide solution may lead to amyloid fibril formation, which is observed as well-ordered, thread-like macromolecular structures in the sample, which eventually may lead to gel formation. Thioflavin T (ThT) is widely used to visualize and quantify the presence of misfolded protein aggregates. [Biancalana et al. (2010) Biochimica et Biophysica Acta. 1804 (7): 1405-1412]. […] Enzymol. 309, 274-284]. The time course for fibril formation often follows the characteristic shape of a sigmoidal curve and can be separated into three regions: a lag phase, a fast growth phase, and a plateau phase.
The typical fibril formation process starts with the lag phase in which the amount of partially folded peptide turned into fibrils is not significant enough to be detected. The lag-time corresponds to the time the critical mass of the nucleus is built. Afterwards, a drastic elongation phase follows and fibril concentration increases rapidly.
Investigations were carried out to determine fibrillation tendencies under stress conditions by shaking at 37° C. within Fluoroskan Ascent FL.
For the tests in Fluoroskan Ascent FL, 200 μL sample were placed into a 96 well mictrotiter plate PS, flat bottom, Greiner Fluotrac No. 655076. Plates were sealed with Scotch Tape (Quiagen). Samples were stressed by continuous cycles of 10 s shaking at 960 rpm and 50 s rest period at 37° C. The kinetic was monitored by measuring fluorescence intensity every 20 minutes.
Peptides were diluted in a buffer system to a final concentration of 3 mg/ml. 20 μL of a 10.1 mM ThT solution in H2O were added to 2 mL of peptide solution to receive a final concentration of 100 μM ThT. For each sample eight replicates were tested.
Tht buffer system A) 100 mM Acetate pH 4.5 including m-cresol (100 mM Natriumacetat trihydrat, pH adjustment using 2N CH3COOH, 2.7 mg/mL m-cresol) Tht buffer system B) 100 mM citrate buffer pH 6.0
Lag time in hours in Thioflavin T (ThT) assay of peptide samples was determined in ThT buffer system A as described in Methods.

Chemical stability [relative purity loss 28 days 40° C.] (%) at pH 4.5 [1] [%]	Delta Rh [nm] = Rh5 − Rh1 [2] [nm]	Rh1 [nm] c = 1 mg/ml [2] [nm]	Rh5 [nm] c = 5 mg/ml [2] [nm]	Lag time before increase [3] [h]	SMILES
8.1	−0.1	3.0	2.9	>45	CCCCCCCCCCCCCCCC(=O)NCCOCCOCC(=O)N[C@@H](CCC(=O)N[C@@H](CCC(=O)NCCCC[C@H](NC(=O)[C@H](CC(C)C)NC(=O)[C@H](CCCCN)NC(=O)[C@H](CO)NC(=O)[C@H](CC(C)C)NC(=O)[C@H](CC(=O)O)NC(=O)[C@H](CO)NC(=O)[C@@H](NC(=O)[C@H](Cc1ccccc1)NC(=O)[C@@H](NC(=O)CNC(=O)[C@H](Cc1c[nH]cn1)NC(=O)C(C)(C)NC(=O)[C@@H](N)Cc1c[nH]cn1)[C@@H](C)O)[C@@H](C)O)C(=O)N[C@@H](CCC(=O)O)C(=O)N[C@@H](CCC(=O)O)C(=O)N[C@@H](CCC(N)=O)C(=O)N[C@@H](CCCNC(=N)N)C(=O)N[C@@H](CCC(N)=O)C(=O)N[C@@H](CCCCN)C(=O)N[C@@H](CCC(=O)O)C(=O)N[C@@H](Cc1ccccc1)C(=O)N[C@H](C(=O)N[C@@H](CCC(=O)O)C(=O)N[C@@H](Cc1c[nH]c2ccccc12)C(=O)N[C@@H](CC(C)C)C(=O)N[C@@H](CCCCN)C(=O)N[C@@H](C)C(=O)NCC(=O)NCC(=O)N[C@@H](Cc1c[nH]cn1)C(=O)N1CCC[C@H]1C(=O)N[C@@H](CO)C(=O)NC(C)(C)C(=O)N[C@@H](CCCCN)C(=O)N1CCC[C@H]1C(=O)N1CCC[C@H]1C(=O)N1CCC[C@H]1C(=O)N[C@@H](CCCCN)C(N)=O)[C@@H](C)CC)C(=O)O)C(=O)O [SEQ ID NO: 14, H-Aib-H-G-T-F-T-S-D-L-S-K-L-K[gGlu-gGlu-AEEA-Palm]-E-E-Q-R-Q-K-E-F-I-E-W-L-K-A-G-G-H-P-S-Aib-K-P-P-P-K-NH2] (H-H[Aib]HGTFTSDLSKLK([γGlu-γGlu-AEEA-Palmitoyl])EEQRQKEFIEWLKAGGHPS[Aib]KPPPK-NH2)
7.2	−0.4	3.0	2.6	>45	CCCCCCCCCCCCCCCC(=O)NCCOCCOCC(=O)N[C@@H](CCC(=O)N[C@@H](CCC(=O)NCCCC[C@H](NC(=O)[C@H](CC(C)C)NC(=O)[C@H](CCCCN)NC(=O)[C@H](CO)NC(=O)[C@H](CC(C)C)NC(=O)[C@H](CC(=O)O)NC(=O)[C@H](CO)NC(=O)[C@@H](NC(=O)[C@H](Cc1ccccc1)NC(=O)[C@@H](NC(=O)CNC(=O)[C@H](Cc1c[nH]cn1)NC(=O)C(C)(C)NC(=O)[C@@H](N)Cc1c[nH]cn1)[C@@H](C)O)[C@@H](C)O)C(=O)N[C@@H](CCC(=O)O)C(=O)N[C@@H](CCC(=O)O)C(=O)N[C@@H](CCC(N)=O)C(=O)N[C@@H](CCCNC(=N)N)C(=O)N[C@@H](CCC(N)=O)C(=O)N[C@@H](CCCCN)C(=O)N[C@@H](CCC(=O)O)C(=O)N[C@@H](Cc1ccccc1)C(=O)N[C@H](C(=O)N[C@@H](CCC(=O)O)C(=O)N[C@@H](Cc1c[nH]c2ccccc12)C(=O)N[C@@H](CC(C)C)C(=O)N[C@@H](CCCCN)C(=O)N[C@@H](C)C(=O)N[C@H](C)C(=O)NCC(=O)N[C@@H](Cc1c[nH]cn1)C(=O)N1CCC[C@H]1C(=O)N[C@@H](CO)C(=O)NC(C)(C)C(=O)N[C@@H](CCCCN)C(=O)N1CCC[C@H]1C(=O)N1CCC[C@H]1C(=O)N1CCC[C@H]1C(=O)N[C@@H](CCCCN)C(N)=O)[C@@H](C)CC)C(=O)O)C(=O)O [SEQ ID NO: 15, H-Aib-H-G-T-F-T-S-D-L-S-K-L-K[gGlu-gGlu-AEEA-Palm]-E-E-Q-R-Q-K-E-F-1-E-W-L-K-A-dAla-G-H-P-S-Aib-K-P-P-P-K-NH2] (H-H[Aib]HGTFTSDLSKLK([γGlu-γGlu-AEEA-Palmitoyl])EEQRQKEFIEWLKA[dA]GHPS[Aib]KPPPK-NH2)
